Results reported in ChEMBL document CHEMBL5029169, “Discovery and optimization of covalent EGFR T790M/L858R mutant inhibitors” (Bioorg Med Chem Lett, 2021).
Calls of active or inactive are those of the source. The calls are words filed in the database; no cut-off is given here.

Columns and labels:
[1] = target: T1, Epidermal growth factor receptor (Homo sapiens, UniProt P00533, L858R/T790M); test: Inhibition of EGFR T790M/L858R double mutant (unknown origin) preincubated for 60 mins followed by substrate addition and further incubated for 60 mins in presence of ATP by IMAP-FP assay
T1 sequence (P00533 25-1210 T790M/L858R limits assumed): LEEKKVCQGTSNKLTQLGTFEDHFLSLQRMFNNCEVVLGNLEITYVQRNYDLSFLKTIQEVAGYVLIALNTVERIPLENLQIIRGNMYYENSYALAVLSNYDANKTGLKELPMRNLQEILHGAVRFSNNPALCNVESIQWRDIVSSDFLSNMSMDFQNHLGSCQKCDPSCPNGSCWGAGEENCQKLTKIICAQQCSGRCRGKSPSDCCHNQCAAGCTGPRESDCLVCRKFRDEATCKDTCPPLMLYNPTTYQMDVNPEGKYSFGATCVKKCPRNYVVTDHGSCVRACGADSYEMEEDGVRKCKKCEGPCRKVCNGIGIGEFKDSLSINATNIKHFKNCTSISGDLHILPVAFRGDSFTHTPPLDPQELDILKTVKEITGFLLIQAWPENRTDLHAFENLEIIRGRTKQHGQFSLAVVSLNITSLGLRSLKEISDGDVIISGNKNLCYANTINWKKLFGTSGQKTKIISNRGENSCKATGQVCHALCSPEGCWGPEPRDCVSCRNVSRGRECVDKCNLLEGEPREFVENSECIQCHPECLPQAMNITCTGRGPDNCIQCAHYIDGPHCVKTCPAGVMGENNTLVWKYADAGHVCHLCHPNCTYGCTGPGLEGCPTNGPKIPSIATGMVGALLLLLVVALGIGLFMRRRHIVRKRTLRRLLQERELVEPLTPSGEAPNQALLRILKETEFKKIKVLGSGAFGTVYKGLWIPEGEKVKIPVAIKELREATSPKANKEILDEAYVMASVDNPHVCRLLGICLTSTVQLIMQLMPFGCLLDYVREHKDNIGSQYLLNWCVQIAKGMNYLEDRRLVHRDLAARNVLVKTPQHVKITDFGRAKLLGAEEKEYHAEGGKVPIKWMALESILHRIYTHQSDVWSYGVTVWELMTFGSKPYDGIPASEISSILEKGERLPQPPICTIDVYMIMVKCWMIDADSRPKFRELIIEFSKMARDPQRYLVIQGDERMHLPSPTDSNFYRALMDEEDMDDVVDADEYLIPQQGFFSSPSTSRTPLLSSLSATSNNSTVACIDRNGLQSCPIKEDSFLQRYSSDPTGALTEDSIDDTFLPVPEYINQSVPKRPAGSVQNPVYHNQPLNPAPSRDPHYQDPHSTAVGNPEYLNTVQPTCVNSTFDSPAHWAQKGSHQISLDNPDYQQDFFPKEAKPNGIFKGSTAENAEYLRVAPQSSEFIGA

[2] = target: Dual specificity tyrosine-phosphorylation-regulated kinase 1A (Homo sapiens) (UniProt Q13627); test: Inhibition of DYRK1A (unknown origin) at 1 uM measured after 1 hr relative to control
[3] = target: Cyclin-dependent kinase 1/cyclin B1 (Homo sapiens) (UniProt P06493+P14635); test: Inhibition of cdk1/Cyclin B (unknown origin) at 1 uM measured after 1 hr relative to control; format: protein-complex assay
Sequence of Cyclin-dependent kinase 1/cyclin B1 (Homo sapiens) (P06493 whole entry, looked up): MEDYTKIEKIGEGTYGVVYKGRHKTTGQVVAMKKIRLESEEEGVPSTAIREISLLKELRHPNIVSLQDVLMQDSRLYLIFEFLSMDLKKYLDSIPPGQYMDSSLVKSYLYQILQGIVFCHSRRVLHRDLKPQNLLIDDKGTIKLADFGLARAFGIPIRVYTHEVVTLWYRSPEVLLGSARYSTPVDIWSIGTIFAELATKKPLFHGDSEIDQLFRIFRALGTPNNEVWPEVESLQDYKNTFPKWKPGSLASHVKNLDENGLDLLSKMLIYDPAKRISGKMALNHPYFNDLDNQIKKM
Sequence of Cyclin-dependent kinase 1/cyclin B1 (Homo sapiens) (P14635 whole entry, looked up): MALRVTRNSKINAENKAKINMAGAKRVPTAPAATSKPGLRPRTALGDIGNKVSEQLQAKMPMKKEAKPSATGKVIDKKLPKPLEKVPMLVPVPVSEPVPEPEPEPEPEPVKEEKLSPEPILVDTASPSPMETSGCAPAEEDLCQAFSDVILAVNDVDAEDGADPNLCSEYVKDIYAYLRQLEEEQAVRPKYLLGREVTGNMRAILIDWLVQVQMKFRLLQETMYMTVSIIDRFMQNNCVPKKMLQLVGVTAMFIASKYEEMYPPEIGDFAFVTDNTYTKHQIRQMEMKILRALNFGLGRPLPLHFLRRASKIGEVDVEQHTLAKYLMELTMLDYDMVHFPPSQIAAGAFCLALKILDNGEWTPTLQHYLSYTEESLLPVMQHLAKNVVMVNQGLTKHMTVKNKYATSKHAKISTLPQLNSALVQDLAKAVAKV

[4] = target: Mitogen-activated protein kinase kinase kinase 9 (Homo sapiens) (UniProt P80192); test: Inhibition of MAP3K9 (unknown origin) at 1 uM measured after 1 hr relative to control
[5] = target: Protein kinase C alpha type (Homo sapiens) (UniProt P17252); test: Inhibition of PRKCA (unknown origin) at 1 uM measured after 1 hr relative to control
[6] = target: Mitogen-activated protein kinase 3 (Homo sapiens) (UniProt P27361); test: Inhibition of MAPK3 (unknown origin) at 1 uM measured after 1 hr relative to control
[7] = target: Serine/threonine-protein kinase PLK2 (Homo sapiens) (UniProt Q9NYY3); test: Inhibition of PLK2 (unknown origin) at 1 uM measured after 1 hr relative to control
Homo sapiens = organism: Homo sapiens; test: Selectivity ratio of EC50 for inhibition of EGF-induced phosphorylation of wild type EGFR in human NCI-H1975 cells to EC50 for inhibition of EGF-induced phosphorylation of EGFR T790M/L858R double mutant in human NCI-H1975 cells preincubated for 120 mins followed by EGF stimulation and measured after 10 mins by ELISA; format: cell-based; details: time 130.0 min
[8] = target: Dual specificity mitogen-activated protein kinase kinase 1 (Homo sapiens) (UniProt Q02750); test: Inhibition of MAP2K1 (unknown origin) at 1 uM measured after 1 hr relative to control
Sequence of Dual specificity mitogen-activated protein kinase kinase 1 (Homo sapiens) (Q02750 whole entry): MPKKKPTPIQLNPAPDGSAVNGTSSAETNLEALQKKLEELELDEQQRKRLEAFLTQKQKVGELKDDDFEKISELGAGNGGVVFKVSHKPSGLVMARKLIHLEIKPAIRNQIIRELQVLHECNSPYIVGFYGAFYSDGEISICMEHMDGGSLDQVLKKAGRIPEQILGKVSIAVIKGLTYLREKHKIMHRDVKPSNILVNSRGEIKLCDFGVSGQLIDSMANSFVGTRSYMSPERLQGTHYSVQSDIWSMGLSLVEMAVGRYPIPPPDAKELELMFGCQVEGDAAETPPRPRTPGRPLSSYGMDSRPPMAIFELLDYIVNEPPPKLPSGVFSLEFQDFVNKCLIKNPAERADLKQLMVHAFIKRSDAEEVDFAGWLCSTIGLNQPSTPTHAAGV

[9] = target: Receptor-type tyrosine-protein kinase FLT3 (Homo sapiens) (UniProt P36888); test: Inhibition of FLT3 (unknown origin) at 1 uM measured after 1 hr relative to control
[10] = target: T2, Epidermal growth factor receptor (Homo sapiens, UniProt P00533); test: Inhibition of EGF-induced phosphorylation of wild type EGFR in human NCI-H1975 cells preincubated for 120 mins followed by EGF stimulation and measured after 10 mins by ELISA; format: cell-based
T2 sequence (P00533 whole entry, canonical isoform): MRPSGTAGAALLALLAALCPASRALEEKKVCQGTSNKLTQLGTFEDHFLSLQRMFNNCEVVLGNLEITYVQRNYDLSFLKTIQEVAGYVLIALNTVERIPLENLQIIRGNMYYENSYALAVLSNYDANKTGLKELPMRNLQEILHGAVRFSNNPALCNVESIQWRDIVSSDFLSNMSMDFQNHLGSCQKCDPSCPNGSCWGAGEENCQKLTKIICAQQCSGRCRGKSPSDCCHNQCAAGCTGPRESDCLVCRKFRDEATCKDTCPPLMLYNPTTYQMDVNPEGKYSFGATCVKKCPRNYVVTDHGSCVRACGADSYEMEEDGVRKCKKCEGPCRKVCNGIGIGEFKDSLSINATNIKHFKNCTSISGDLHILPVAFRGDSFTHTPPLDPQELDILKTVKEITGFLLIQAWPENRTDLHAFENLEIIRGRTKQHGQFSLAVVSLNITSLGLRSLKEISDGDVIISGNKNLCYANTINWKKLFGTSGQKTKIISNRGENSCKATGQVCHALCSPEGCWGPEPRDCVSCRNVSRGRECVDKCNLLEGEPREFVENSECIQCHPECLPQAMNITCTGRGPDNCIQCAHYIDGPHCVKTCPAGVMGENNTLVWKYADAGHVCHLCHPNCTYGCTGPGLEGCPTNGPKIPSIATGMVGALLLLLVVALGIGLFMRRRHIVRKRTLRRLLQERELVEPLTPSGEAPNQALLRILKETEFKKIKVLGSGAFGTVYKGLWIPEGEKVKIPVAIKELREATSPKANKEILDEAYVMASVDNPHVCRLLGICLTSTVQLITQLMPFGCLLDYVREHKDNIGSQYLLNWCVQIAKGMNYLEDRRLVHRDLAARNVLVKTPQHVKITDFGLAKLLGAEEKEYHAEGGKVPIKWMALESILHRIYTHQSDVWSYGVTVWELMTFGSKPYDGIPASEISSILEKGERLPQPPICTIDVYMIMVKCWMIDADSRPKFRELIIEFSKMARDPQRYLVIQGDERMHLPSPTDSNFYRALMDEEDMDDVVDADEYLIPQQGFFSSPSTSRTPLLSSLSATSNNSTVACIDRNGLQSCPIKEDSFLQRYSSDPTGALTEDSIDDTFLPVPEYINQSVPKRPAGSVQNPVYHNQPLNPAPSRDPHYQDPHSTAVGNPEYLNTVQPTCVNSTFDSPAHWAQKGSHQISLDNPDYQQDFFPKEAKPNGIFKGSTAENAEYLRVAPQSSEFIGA

[11] = target: Casein kinase I isoform gamma-2 (Homo sapiens) (UniProt P78368); test: Inhibition of CSNK1G2 (unknown origin) at 1 uM measured after 1 hr relative to control
[12] = target: Mitogen-activated protein kinase 8 (Homo sapiens) (UniProt P45983); test: Inhibition of MAPK8 (unknown origin) at 1 uM measured after 1 hr relative to control
[13] = target: T2, Epidermal growth factor receptor; test: Inhibition of wild type EGFR (unknown origin) preincubated for 60 mins followed by substrate addition and further incubated for 60 mins in presence of ATP by IMAP-FP assay
[14] = target: Serine/threonine-protein kinase B-raf (Homo sapiens) (UniProt P15056); test: Inhibition of BRAF (unknown origin) at 1 uM measured after 1 hr relative to control
Sequence of Serine/threonine-protein kinase B-raf (Homo sapiens) (P15056 whole entry): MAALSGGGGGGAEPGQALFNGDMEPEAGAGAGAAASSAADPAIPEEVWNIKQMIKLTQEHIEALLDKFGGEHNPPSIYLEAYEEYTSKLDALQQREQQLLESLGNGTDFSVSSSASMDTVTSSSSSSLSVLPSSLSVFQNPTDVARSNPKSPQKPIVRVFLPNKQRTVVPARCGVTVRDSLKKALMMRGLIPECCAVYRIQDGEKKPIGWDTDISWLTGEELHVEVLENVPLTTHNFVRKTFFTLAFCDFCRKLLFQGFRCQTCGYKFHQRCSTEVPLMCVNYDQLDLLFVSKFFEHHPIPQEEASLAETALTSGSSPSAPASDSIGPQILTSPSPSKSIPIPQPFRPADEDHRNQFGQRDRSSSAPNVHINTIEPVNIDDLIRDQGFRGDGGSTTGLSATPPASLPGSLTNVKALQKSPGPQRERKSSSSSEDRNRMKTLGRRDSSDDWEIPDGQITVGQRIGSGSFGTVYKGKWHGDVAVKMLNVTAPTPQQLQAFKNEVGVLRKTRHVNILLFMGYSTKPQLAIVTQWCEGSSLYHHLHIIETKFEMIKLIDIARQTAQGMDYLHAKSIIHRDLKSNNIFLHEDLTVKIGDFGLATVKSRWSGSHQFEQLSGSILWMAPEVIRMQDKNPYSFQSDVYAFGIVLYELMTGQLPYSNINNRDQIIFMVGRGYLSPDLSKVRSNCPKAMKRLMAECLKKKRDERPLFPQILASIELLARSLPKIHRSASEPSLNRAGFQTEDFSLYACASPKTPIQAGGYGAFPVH

[15] = target: Glycogen synthase kinase-3 beta (Homo sapiens) (UniProt P49841); test: Inhibition of GSK3B (unknown origin) at 1 uM measured after 1 hr relative to control
Sequence of Glycogen synthase kinase-3 beta (Homo sapiens) (P49841 whole entry, looked up): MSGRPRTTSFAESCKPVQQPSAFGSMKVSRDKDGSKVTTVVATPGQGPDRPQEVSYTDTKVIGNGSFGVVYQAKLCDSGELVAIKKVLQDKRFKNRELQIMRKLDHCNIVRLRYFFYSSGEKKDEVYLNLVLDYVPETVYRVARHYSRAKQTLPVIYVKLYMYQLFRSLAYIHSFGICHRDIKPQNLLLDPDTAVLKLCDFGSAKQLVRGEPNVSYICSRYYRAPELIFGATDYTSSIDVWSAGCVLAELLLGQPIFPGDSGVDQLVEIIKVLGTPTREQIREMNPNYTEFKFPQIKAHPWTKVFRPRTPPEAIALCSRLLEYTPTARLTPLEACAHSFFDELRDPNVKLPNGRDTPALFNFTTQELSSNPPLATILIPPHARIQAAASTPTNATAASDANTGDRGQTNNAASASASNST

[16] = target: T1, Epidermal growth factor receptor; test: Inhibition of EGF-induced phosphorylation of EGFR T790M/L858R double mutant in human NCI-H1975 cells preincubated for 120 mins followed by EGF stimulation and measured after 10 mins by ELISA; format: cell-based
[17] = target: Insulin-like growth factor 1 receptor (Homo sapiens) (UniProt P08069); test: Inhibition of IGF1R (unknown origin) at 1 uM measured after 1 hr relative to control
[18] = target: T3, Serine/threonine-protein kinase BRSK1 (Homo sapiens) (UniProt Q8TDC3); test: Inhibition of BRSK1 (unknown origin) at 1 uM measured after 1 hr relative to control
T3 sequence (whole entry): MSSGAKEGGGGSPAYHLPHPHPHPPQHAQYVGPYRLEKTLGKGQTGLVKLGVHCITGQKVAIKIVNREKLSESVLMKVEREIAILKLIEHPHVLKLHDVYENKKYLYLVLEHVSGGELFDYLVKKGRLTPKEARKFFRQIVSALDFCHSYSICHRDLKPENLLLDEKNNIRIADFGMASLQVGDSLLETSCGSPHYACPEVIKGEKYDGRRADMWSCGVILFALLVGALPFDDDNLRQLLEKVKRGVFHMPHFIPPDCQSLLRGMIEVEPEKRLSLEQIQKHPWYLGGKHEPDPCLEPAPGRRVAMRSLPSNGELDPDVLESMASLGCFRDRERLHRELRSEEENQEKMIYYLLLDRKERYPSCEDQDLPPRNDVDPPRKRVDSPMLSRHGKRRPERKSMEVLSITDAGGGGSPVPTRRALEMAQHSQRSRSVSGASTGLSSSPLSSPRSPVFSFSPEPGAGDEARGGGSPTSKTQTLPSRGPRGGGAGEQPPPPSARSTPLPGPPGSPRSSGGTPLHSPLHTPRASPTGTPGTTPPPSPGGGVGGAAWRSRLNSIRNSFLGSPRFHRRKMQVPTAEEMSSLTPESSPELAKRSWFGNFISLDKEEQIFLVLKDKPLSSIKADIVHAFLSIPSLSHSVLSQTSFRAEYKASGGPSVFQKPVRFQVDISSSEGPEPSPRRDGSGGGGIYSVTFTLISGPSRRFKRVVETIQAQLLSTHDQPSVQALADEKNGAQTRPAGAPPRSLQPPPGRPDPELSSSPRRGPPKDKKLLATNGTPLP

[19] = target: Mitogen-activated protein kinase kinase kinase kinase 4 (Homo sapiens) (UniProt O95819); test: Inhibition of MAP4K4 (unknown origin) at 1 uM measured after 1 hr relative to control
[20] = Oral bioavailability in mouse; format: ADME, organism-based; details: in vivo
[21] = target: Serine/threonine-protein kinase Chk2 (Homo sapiens) (UniProt O96017); test: Inhibition of CHEK2 (unknown origin) at 1 uM measured after 1 hr relative to control
[22] = Inhibition of EGF-induced phosphorylation of EGFR T790M/L858R double mutant in human NCI-H1975 cells preincubated for 2 hrs followed by EGF stimulation and measured after 10 mins by ELISA; format: cell-based
[23] = Toxicity in mouse xenografted with human NCI-H1975 cells assessed as change in body weight at 30 mg/kg, po administered bid measured after 11 days; format: organism-based; details: in vivo, 264 h, time 11 day
NCI-H1975 [24] = test: Antitumor activity against human NCI-H1975 cells xenografted in mouse model assessed as tumor growth inhibition at 30 mg/kg, po administered qd measured after 11 days; format: functional, organism-based; details: time 11.0 day
NCI-H1975 [25] = test: Antitumor activity against human NCI-H1975 cells xenografted in mouse model assessed as tumor growth inhibition at 30 mg/kg, po administered bid measured after 11 days relative to control; format: functional; details: 264 h, time 11 day, read-out: TGI

Row | SMILES | IC50 [1] | inhibition [2] | inhibition [3] | inhibition [4] | inhibition [5] | inhibition [6] | inhibition [7] | Ratio EC50 (Homo sapiens) | inhibition [8] | inhibition [9] | inhibition [11] | inhibition [12] | IC50 [13] | inhibition [14] | inhibition [15] | EC50 [16] | inhibition [17] | inhibition [18] | inhibition [19] | inhibition [21] | also measured
1 | CC#CC(=O)Nc1cccc(-c2nccc(-c3cc4c([nH]3)C3(CCNCC3)CNC4=O)n2)c1 | 499 nM |  |  |  |  |  |  |  |  |  |  |  |  |  |  |  |  |  |  |  | 
2 | C=CC(=O)N1CCC2(CC1)CNC(=O)c1cc(-c3nc(Nc4ccccc4OC)ncc3C)[nH]c12 | 1.2 nM | 98% | 89% | 98% | 61% | 90% | 86% | 14 | 98% | 100% | 92% | 85% | 1.4 nM | 98% | 99% | 12 nM | 69% | 0% | 89% | 96% | EC50 [10]: 165 nM; bioavailability [20]: 87%
3 | C=CC(=O)Nc1cc(Nc2nccc(-c3cn(C)c4ccccc34)n2)c(OC)cc1N(C)CCN(C)C [OSIMERTINIB] |  | 0% | 5% | 71% | 4% | 0% | 0% |  | 0% | 57% | 5% | 0% |  | 6% | 12% |  | 31% | 7% | 78% | 0% | EC50 [22]: 15 nM; bioavailability [20]: 45%
4 | C=CC(=O)N1CCC2(CC1)CNC(=O)c1cc(-c3ccnc(Nc4ccccc4OC(C)C)n3)[nH]c12 | 1.3 nM | 70% | 8% | 38% | 5% | 40% | 12% | 64 | 48% | 22% | 88% | 50% | 1.2 nM | 34% | 88% | 8.8 nM | 14% | 4% | 32% | 100% | Activity [23]: Non-Toxic; Activity (NCI-H1975 [24]): Active; EC50 [10]: 562 nM; bioavailability [20]: 11%; inhibition in vivo at 30 mg/kg (NCI-H1975 [25]): 60%
5 | COc1ccccc1Nc1nccc(-c2cc3c([nH]2)C2(CCN(C(=O)C#CN(C)C)CC2)CNC3=O)n1 | 2.8 nM |  |  |  |  |  |  |  |  |  |  |  | 5.3 nM |  |  | 2180 nM |  |  |  |  | 
6 | C=CC(=O)N1CCC2(CC1)CNC(=O)c1cc(-c3nc(Nc4ccccc4OC)ncc3Cl)[nH]c12 | 0.8 nM |  |  |  |  |  |  | 89 |  |  |  |  | 0.9 nM |  |  | 3.1 nM |  |  |  |  | EC50 [10]: 277 nM
7 | C=CC(=O)N1CCC2(CC1)CNC(=O)c1cc(-c3ccnc(-c4ccc5c(c4)OCO5)n3)[nH]c12 | 6.5 nM |  |  |  |  |  |  |  |  |  |  |  | 43 nM |  |  |  |  |  |  |  | 
8 | C=CC(=O)N1CCC2(CC1)CNC(=O)c1cc(-c3ccnc(Nc4ccccc4OC)n3)[nH]c12 | 0.9 nM | 73% | 71% | 75% | 30% | 69% | 79% | 7.7 | 72% | 85% | 81% | 80% | 0.4 nM | 83% | 85% | 40 nM | 3% | 18% | 91% | 99% | EC50 [10]: 308 nM; bioavailability [20]: 3.2%
9 | C=CC(=O)N1CCC2(CC1)CNC(=O)c1cc(-c3ccnc(Nc4ccccc4OC)c3)[nH]c12 | 37 nM | 46% | 12% | 1% | 14% | 81% | 7% |  | 80% | 16% | 79% | 87% | 192 nM | 75% | 34% | > 10000 nM | 0% | 18% | 80% | 100% | 
10 | C=CC(=O)N1CCC2(CC1)CNC(=O)c1cc(-c3ccnc(-c4cccc(OC)c4)n3)[nH]c12 | 9.6 nM |  |  |  |  |  |  |  |  |  |  |  | 32 nM |  |  | 2550 nM |  |  |  |  | 
